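Protocol summary: plate cells (96-well), add compound at 5 concentrations, incubate 48 h, interpolate endpoints linearly. GI50 marks 50% less growth.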 Activity calls are given as the source filed them. Cut-off read from the data, not from the text of the source: active = GI50 up to about 1.1 µM and inactive = higher.
Experiments:
Test in all cases: DTP human tumour cell line panel, 48 h
DU-145 = test system: DU-145
SF-295 = test system: SF-295
LOX IMVI = test system: LOX IMVI
U-251 = test system: U-251
TK-10 = test system: TK-10
UACC-62 = test system: UACC-62
NCI-H460 = test system: NCI-H460
Hs-578T = test system: Hs-578T
HOP-92 = test system: HOP-92
K562 = test system: K562
RPMI-8226 = test system: RPMI-8226
SK-MEL-2 = test system: SK-MEL-2
MOLT-4 = test system: MOLT-4
CAKI-1 = test system: CAKI-1
MDA-N = test system: MDA-N
NCI-H522 = test system: NCI-H522
SW-620 = test system: SW-620
SF-539 = test system: SF-539
COLO 205 = test system: COLO 205
SR = test system: SR

Measured: GI50

CC(=O)c1c(SCCN2CCCC2)n(-c2ccccc2)c(=S)n(-c2ccccc2)c1=O
inactive: DU-145 2.75 µM | SF-295 > 76 µM | LOX IMVI 2.49 µM | U-251 21.1 µM | TK-10 3.64 µM | UACC-62 6.93 µM | NCI-H460 17.9 µM | Hs-578T 17.6 µM | HOP-92 3.27 µM | K562 2.72 µM | RPMI-8226 1.51 µM | SK-MEL-2 21.6 µM | MOLT-4 2.41 µM | CAKI-1 4.34 µM | MDA-N 7.03 µM | NCI-H522 2.48 µM | SW-620 2.34 µM | SF-539 6.12 µM | COLO 205 1.76 µM | SR 2.28 µM

O=C(c1cccnc1)N1N=C(c2ccccc2)CC1(O)c1cc(F)c(Cl)cc1Cl (centres undefined)
inactive: DU-145 32.1 µM | SF-295 16.3 µM | LOX IMVI 15.7 µM | U-251 16.4 µM | TK-10 41 µM | NCI-H460 18.6 µM | Hs-578T 27 µM | HOP-92 20.7 µM | K562 21.4 µM | RPMI-8226 18.2 µM | SK-MEL-2 19.4 µM | MOLT-4 14.5 µM | CAKI-1 33.3 µM | MDA-N 28.6 µM | NCI-H522 26.1 µM | SW-620 28.3 µM | SF-539 15.4 µM | COLO 205 14.1 µM | SR 22.5 µM

c1ccc2c(c1)ccn2CCc1c[nH]c2ccccc12
inactive: DU-145 > 10 µM | SF-295 > 10 µM | LOX IMVI > 10 µM | U-251 > 10 µM | TK-10 > 10 µM | UACC-62 > 10 µM | NCI-H460 > 10 µM | Hs-578T > 10 µM | HOP-92 > 10 µM | K562 > 10 µM | RPMI-8226 > 10 µM | SK-MEL-2 > 10 µM | MOLT-4 > 10 µM | CAKI-1 > 10 µM | MDA-N > 10 µM | NCI-H522 > 10 µM | SW-620 > 10 µM | SF-539 > 10 µM | COLO 205 > 10 µM | SR > 10 µM

CCC(C)C1NC(=O)C(NC(=O)c2c3nc4c(C(=O)NC5C(=O)NC(C(C)CC)C(=O)N6CCCC6C(=O)N(C)CC(=O)N(C)C(C(C)C)C(=O)OC5C)ccc(C)c4oc-3c(C)c(=O)c2O)C(C)OC(=O)C(C(C)C)N(C)C(=O)CN(C)C(=O)C2CCCN2C1=O (centres undefined)
active: LOX IMVI 0.532 µM | U-251 1.05 µM | NCI-H460 0.174 µM | K562 0.74 µM | RPMI-8226 0.902 µM | MOLT-4 1.01 µM | NCI-H522 0.295 µM | SW-620 1.09 µM | SF-539 0.838 µM | SR 0.119 µM
inactive: DU-145 5.78 µM | SF-295 3.61 µM | TK-10 10.2 µM | UACC-62 1.14 µM | Hs-578T 4.49 µM | HOP-92 6.76 µM | SK-MEL-2 2.07 µM | CAKI-1 10.3 µM | MDA-N 4.21 µM | COLO 205 1.35 µM

O=C(ON=C1c2ccccc2C(Br)C(Br)c2ccccc21)c1cc([N+](=O)[O-])cc([N+](=O)[O-])c1 (centres undefined)
inactive: DU-145 25.9 µM | SF-295 35 µM | LOX IMVI 13.9 µM | U-251 15.8 µM | TK-10 23.2 µM | UACC-62 18.7 µM | NCI-H460 19.2 µM | Hs-578T 23 µM | HOP-92 16 µM | K562 16.9 µM | RPMI-8226 6.81 µM | SK-MEL-2 31.6 µM | MOLT-4 7.45 µM | CAKI-1 20.5 µM | MDA-N 22.1 µM | NCI-H522 5.3 µM | SW-620 18.7 µM | SF-539 18 µM | COLO 205 20.3 µM
active: SR 0.245 µM

CN(N)C(=O)NCCCl
inactive: DU-145 > 100 µM | SF-295 > 100 µM | LOX IMVI > 100 µM | U-251 > 100 µM | TK-10 > 100 µM | UACC-62 > 100 µM | NCI-H460 > 100 µM | Hs-578T > 100 µM | HOP-92 > 100 µM | K562 > 100 µM | RPMI-8226 > 100 µM | SK-MEL-2 > 100 µM | MOLT-4 > 100 µM | CAKI-1 > 100 µM | MDA-N > 100 µM | NCI-H522 > 100 µM | SW-620 > 100 µM | SF-539 > 100 µM | COLO 205 > 100 µM | SR > 100 µM

O=[N+]([O-])c1ccc2[nH]nc(OCc3ccccc3Cl)c2c1
inactive: DU-145 50.7 µM | SF-295 42.6 µM | LOX IMVI 28.6 µM | U-251 28.3 µM | TK-10 29.9 µM | UACC-62 29.2 µM | NCI-H460 35.5 µM | Hs-578T 42.3 µM | HOP-92 20.5 µM | K562 > 100 µM | RPMI-8226 > 100 µM | SK-MEL-2 27.2 µM | MOLT-4 63.5 µM | CAKI-1 50.4 µM | MDA-N > 100 µM | NCI-H522 17.1 µM | SW-620 > 10 µM | SF-539 22.4 µM | COLO 205 > 100 µM | SR > 100 µM

COC[C@H]1C(=O)NCC(=O)N2N=CCC[C@H]2C(=O)N(O)[C@H](C)C(=O)O[C@@H](C(C)C)[C@H](NC(=O)[C@@](C)(O)[C@]2(O)CC[C@@H](CC(C)C)[C@H](C)O2)C(=O)N2NCCC[C@@H]2C(=O)N1O
active: DU-145 0.0343 µM | SF-295 0.0193 µM | LOX IMVI 0.0178 µM | U-251 0.0168 µM | TK-10 0.0218 µM | UACC-62 0.0176 µM | NCI-H460 0.0166 µM | Hs-578T 0.0179 µM | HOP-92 0.0174 µM | K562 0.02 µM | RPMI-8226 0.0208 µM | SK-MEL-2 0.0164 µM | MOLT-4 0.0164 µM | CAKI-1 0.133 µM | MDA-N 0.018 µM | NCI-H522 0.0178 µM | SW-620 0.0157 µM | SF-539 0.0172 µM | COLO 205 0.0175 µM | SR 0.014 µM

C=Cc1c(C)c2cc3nc(c4c5[nH]c(cc6nc(cc1[nH]2)C(C)=C6CC)c(C)c5C(=O)C4C(=O)OC)C(CCC(=O)OC)C3C (centres undefined)
inactive: DU-145 40.4 µM | SF-295 > 100 µM | LOX IMVI > 100 µM | U-251 > 100 µM | TK-10 > 100 µM | UACC-62 > 100 µM | NCI-H460 > 100 µM | Hs-578T 81.3 µM | HOP-92 > 100 µM | K562 > 100 µM | RPMI-8226 > 100 µM | SK-MEL-2 > 100 µM | CAKI-1 > 100 µM | MDA-N > 100 µM | NCI-H522 > 100 µM | SW-620 > 100 µM | SF-539 > 100 µM | COLO 205 > 100 µM | SR > 100 µM

O=c1c2cc(S(=O)(=O)O)ccc2nc(COc2ccc(Oc3ccc(Cl)cc3Cl)cc2)n1C(=S)Nc1ccc(Cl)cc1
inactive: DU-145 27.7 µM | SF-295 19.9 µM | LOX IMVI 16.6 µM | U-251 17.2 µM | TK-10 18.3 µM | UACC-62 15.8 µM | NCI-H460 17.9 µM | Hs-578T 20.6 µM | HOP-92 18.1 µM | RPMI-8226 26.9 µM | SK-MEL-2 18.4 µM | CAKI-1 27.9 µM | MDA-N 22.1 µM | NCI-H522 17.6 µM | SW-620 20.9 µM | SF-539 16.8 µM | COLO 205 18 µM | SR 1.53 µM
active: K562 1.06 µM

NC(=O)C1CCCN1Cc1ccc2c(c1)OCO2 (centres undefined)
inactive: DU-145 > 100 µM | SF-295 > 100 µM | LOX IMVI > 100 µM | U-251 > 100 µM | TK-10 > 100 µM | UACC-62 > 100 µM | NCI-H460 > 100 µM | Hs-578T > 100 µM | HOP-92 > 100 µM | K562 > 100 µM | RPMI-8226 > 100 µM | SK-MEL-2 > 100 µM | MOLT-4 > 100 µM | CAKI-1 > 100 µM | MDA-N > 100 µM | NCI-H522 > 100 µM | SW-620 > 100 µM | SF-539 > 100 µM | COLO 205 > 100 µM | SR > 100 µM

CC(C)=CCN1CC(C)C(=O)Nc2cc(Cl)ccc21 (centres undefined)
inactive: DU-145 30 µM | SF-295 27.1 µM | LOX IMVI 16.2 µM | U-251 27.4 µM | TK-10 19.3 µM | NCI-H460 20.5 µM | Hs-578T 36.5 µM | HOP-92 10.8 µM | K562 96.8 µM | RPMI-8226 28.8 µM | SK-MEL-2 16.2 µM | MOLT-4 > 100 µM | CAKI-1 18.5 µM | MDA-N 26 µM | NCI-H522 17.3 µM | SW-620 26.7 µM | SF-539 23.5 µM | COLO 205 19.8 µM | SR > 100 µM

COc1ccc(CC(=O)N2CCC3(C)CC(=O)CC=C23)cc1OC (centres undefined)
inactive: DU-145 > 100 µM | SF-295 > 100 µM | LOX IMVI > 100 µM | U-251 > 100 µM | UACC-62 > 100 µM | Hs-578T > 100 µM | HOP-92 > 100 µM | K562 > 100 µM | RPMI-8226 > 100 µM | SK-MEL-2 > 100 µM | MOLT-4 > 100 µM | CAKI-1 > 100 µM | MDA-N > 100 µM | NCI-H522 33.6 µM | SW-620 > 100 µM | SF-539 > 100 µM | COLO 205 > 100 µM | SR > 100 µM
active: TK-10 < 0.01 µM

CC(C)(C)C(=O)C(C(=O)C(C)(C)C)C(=O)C(C)(C)C
inactive: DU-145 > 100 µM | SF-295 > 100 µM | LOX IMVI > 100 µM | U-251 > 100 µM | TK-10 > 100 µM | NCI-H460 > 100 µM | Hs-578T > 100 µM | HOP-92 > 100 µM | K562 > 100 µM | RPMI-8226 > 100 µM | SK-MEL-2 > 100 µM | MOLT-4 > 100 µM | CAKI-1 > 100 µM | MDA-N > 100 µM | NCI-H522 > 100 µM | SW-620 > 100 µM | SF-539 > 100 µM | COLO 205 > 100 µM | SR > 100 µM

Reference: ChEMBL document CHEMBL1201862, “PubChem BioAssay data set” (2004)
